US20240228506A1, “RIPK1 INHIBITORS AND METHODS OF USE” (Merck Sharp & Dohme LLC, priority 2021, published 2024)

The compounds below were run against T1, GST-RIPK1 (recombinant GST-RIPK1 kinase domain (residues 1-327)) (Homo sapiens, UniProt Q13546) (assay: RIPK1-ADP-Glo enzymatic assay). Details: 25 nM GST-RIPK1, 300 μM ATP, 3 μM dephosphorylated-MBP; 30 minutes pre-incubation, 150 minutes reaction; ten-point titration.
T1 construct: recombinant GST-RIPK1 kinase domain (residues 1-327) enzyme; made in house; host or cells: baculovirus-transfected Sf21 insect cells
T1 sequence (Q13546 1-327): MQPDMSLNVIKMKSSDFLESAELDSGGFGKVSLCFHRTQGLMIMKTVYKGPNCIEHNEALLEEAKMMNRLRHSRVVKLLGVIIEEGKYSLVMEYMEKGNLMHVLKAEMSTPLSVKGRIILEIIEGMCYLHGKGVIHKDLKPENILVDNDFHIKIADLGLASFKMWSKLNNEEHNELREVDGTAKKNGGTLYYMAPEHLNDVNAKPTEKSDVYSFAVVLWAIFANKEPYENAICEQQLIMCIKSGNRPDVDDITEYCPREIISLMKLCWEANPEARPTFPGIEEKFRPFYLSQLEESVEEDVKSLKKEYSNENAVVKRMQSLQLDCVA
Format: biochemical
Method in brief: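 Ten-point 1:3 titrations from 100000 nM, 1% DMSO, were preincubated 30 min with 25 nM GST-RIPK1 (1-327) before starting with 300 μM ATP plus 3 μM dephosphorylated MBP; 150 min reaction. ADP-Glo luminescence measured ATP-to-ADP conversion; EC50 by four-parameter sigmoidal regression.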

SMILES	IC50
O=C(N1C[C@@H]2C[C@H]1c1cncc(F)c1O2)C12CCC(CC1(F)F)C2 (single isomer, unassigned) [Compound 2-18, (2,2-(S or R)-difluorobicyclo[2.2.1]heptan-1-yl)((28,5S)-9-fluoro-2,3-dihydro-2,5-methanopyrido[3,4-f][1,4]oxazepin-4(5H)-yl)methanone]	90 nM
CC(C)(C(=O)N1C[C@@H]2C[C@H]1c1cncc(C#CCCC(F)(F)F)c1O2)C(F)F [Compound 2-111, 3,3-difluoro-2,2-dimethyl-1-((2S,5S)-9-(5,5,5-trifluoropent-1-yn-1-yl)-2,3-dihydro-2,5-methanopyrido[3,4-f][1,4]oxazepin-4(5H)-yl)propan-1-one]	266 nM
CC1(C(=O)N2C[C@@H]3C[C@H]2c2cncc(C#N)c2O3)CCCC1(F)F (single isomer, unassigned) [Compound 1-39]	31 nM
Cc1ncc2c(c1F)O[C@H]1C[C@@H]2N(C(=O)C23CCC(F)(CC2)C3)C1 [Compound 2-28, ((2S,5S)-9-fluoro-8-methyl-2,3-dihydro-2,5-methanopyrido[3,4-f][1,4]oxazepin-4(5H)-yl)(4-fluorobicyclo[2.2.1]heptan-1-yl)methanone]	59 nM
O=C(N1C[C@@H]2C[C@H]1c1cncc(F)c1O2)C12CCC(CC1)C2 [Compound 2-21, bicyclo[2.2.1]heptan-1-yl((2S,5S)-9-fluoro-2,3-dihydro-2,5-methanopyrido[3,4-f][1,4]oxazepin-4(5H)-yl)methanone]	37 nM
CC1(CC#Cc2cncc3c2O[C@H]2C[C@@H]3N(C(=O)C34CCC(F)(CC3)C4)C2)COC1 [Compound 2-116, (4-fluorobicyclo[2.2.1]heptan-1-yl)((2S,5S)-9-(3-(3-methyloxetan-3-yl)prop-1-yn-1-yl)-2,3-dihydro-2,5-methanopyrido[3,4-f][1,4]oxazepin-4(5H)-yl)methanone]	376 nM
CC(C)(C(=O)N1C[C@@H]2C[C@H]1c1cc(F)cnc1O2)C(F)F [Compound 3-1, 3,3-Difluoro-1-((2S,5S)-7-fluoro-2,3-dihydro-2,5-methanopyrido[3,2-f][1,4]oxazepin-4(5H)-yl)-2,2-dimethylpropan-1-one]	317 nM
N#Cc1cncc2c1O[C@H]1C[C@@H]2N(C(=O)C2(F)CCN(c3ccnc(Cl)c3)CC2)C1 [Compound 1-72, (2S,5S)-4-(1-(2-chloropyridin-4-yl)-4-fluoropiperidine-4-carbonyl)-2,3,4,5-tetrahydro-2,5-methanopyrido[3,4-f][1,4]oxazepine-9-carbonitrile]	35 nM
CC(C)(C(=O)N1C[C@@H]2C[C@H]1c1cncc(C#Cc3ccc(C(F)F)nc3)c1O2)C(F)F [Compound 2-84, 1-((2S,5S)-9-((6-(difluoromethyl)pyridin-3-yl)ethynyl)-2,3-dihydro-2,5-methanopyrido[3,4-f][1,4]oxazepin-4(5H)-yl)-3,3-difluoro-2,2-dimethylpropan-1-one]	26 nM
O=C(N1C[C@@H]2C[C@H]1c1cncc(C#CCC3(F)COC3)c1O2)C12CCC(F)(CC1)C2 [Compound 2-120, (4-fluorobicyclo[2.2.1]heptan-1-yl)((2S,5S)-9-(3-(3-fluorooxetan-3-yl)prop-1-yn-1-yl)-2,3-dihydro-2,5-methanopyrido[3,4-f][1,4]oxazepin-4(5H)-yl)methanone]	95 nM
CC(C)(C(=O)N1C[C@@H]2C[C@H]1c1cncc(C#Cc3cncc(Cl)c3)c1O2)C(F)F [Compound 2-90, 1-((2S,5S)-9-((5-chloropyridin-3-yl)ethynyl)-2,3-dihydro-2,5-methanopyrido[3,4-f][1,4]oxazepin-4(5H)-yl)-3,3-difluoro-2,2-dimethylpropan-1-one]	28 nM
CC(C)(C(=O)N1C[C@@H]2C[C@H]1c1cncc(C#CCC3CCCCC3)c1O2)C(F)F [Compound 2-109, 1-((2S,5S)-9-(3-cyclohexylprop-1-yn-1-yl)-2,3-dihydro-2,5-methanopyrido[3,4-f][1,4]oxazepin-4(5H)-yl)-3,3-difluoro-2,2-dimethylpropan-1-one]	184 nM
N#Cc1cncc2c1C[C@H]1C[C@@H]2N(C(=O)C23CCC(C(F)(F)F)(CC2)C3)C1 (single isomer, unassigned) [Compound 5-6]	123 nM

Now those with a lower IC50, led by results:

IC50	SMILES
23 nM	N#Cc1cncc2c1O[C@H]1C[C@@H]2N(C(=O)C2(F)CC(Oc3ccc(F)cc3F)C2)C1 (single isomer, unassigned) [Compound 1-107, (2S,5S)-4-(3-(2,4-difluorophenoxy)-1-(R or S)-fluorocyclobutane-1-carbonyl)-2,3,4,5-tetrahydro-2,5-methanopyrido[3,4-f][1,4]oxazepine-9-carbonitrile]
24 nM	CC(C)(C(=O)N1C[C@@H]2C[C@H]1c1cncc(C#Cc3cnc(C4CC4)nc3)c1O2)C(F)F [Compound 2-80, 1-((2S,5S)-9-((2-cyclopropylpyrimidin-5-yl)ethynyl)-2,3-dihydro-2,5-methanopyrido[3,4-f][1,4]oxazepin-4(5H)-yl)-3,3-difluoro-2,2-dimethylpropan-1-one]
12 nM	N#Cc1cncc2c1S[C@H]1C[C@@H]2N(C(=O)C23CCC(F)(CC2)C3)C1 [Compound 4-3, (2S,5S)-4-(4-fluorobicyclo[2.2.1]heptane-1-carbonyl)-2,3,4,5-tetrahydro-2,5-methanopyrido[3,4-f][1,4]thiazepine-9-carbonitrile]
13 nM	CCC(C)(C)C(=O)N1C[C@@H]2C[C@H]1c1cncc(C#N)c1O2 [Compound 1-4, (2S,5S)-4-(2,2-dimethylbutanoyl)-2,3,4,5-tetrahydro-2,5-methanopyrido[3,4-f][1,4]oxazepine-9-carbonitrile]
10 nM	O=C(N1C[C@@H]2C[C@H]1c1cncc(Cl)c1O2)C12CCC(C(F)(F)F)(CC1)C2 [Compound 2-4, [(2S,5S)-9-chloro-2,3-dihydro-2,5-methanopyrido[3,4-f][1,4]oxazepin-4(5H)-yl][4-(trifluoromethyl)bicyclo [2.2.1]heptan-1-yl]methanone]
18 nM	N#CCc1ccc(C#Cc2cncc3c2O[C@H]2C[C@@H]3N(C(=O)C34CCC(F)(CC3)C4)C2)cc1 [Compound 2-105]
25 nM	COc1ccc2cc(C#Cc3cncc4c3O[C@H]3C[C@@H]4N(C(=O)C(C)(C)C)C3)ccc2c1 [Compound 2-38, 1-((2S,5S)-9-((6-methoxynaphthalen-2-yl)ethynyl)-2,3-dihydro-2,5-methanopyrido[3,4-f][1,4]oxazepin-4(5H)-yl)-2,2-dimethylpropan-1-one]
19 nM	CC(C)(C(=O)N1C[C@@H]2C[C@H]1c1cncc(C#Cc3cnc(C#N)nc3)c1O2)C(F)F [Compound 2-78, 5-(((2S,5S)-4-(3,3-difluoro-2,2-dimethylpropanoyl)-2,3,4,5-tetrahydro-2,5-methanopyrido[3,4-f][1,4]oxazepin-9-yl)ethynyl)pyrimidine-2-carbonitrile]
20 nM	O=C(N1C[C@@H]2C[C@H]1c1cncc(F)c1O2)C12CCC(C(F)(F)F)(CC1)C2 [Compound 2-14, ((2S,5S)-9-fluoro-2,3-dihydro-2,5-methanopyrido[3,4-f][1,4]oxazepin-4(5H)-yl)(4-(trifluoromethyl)bicyclo [2.2.1]heptan-1-yl)methanone]
